These results are taken from patent US8389526B2, “3-heteroarylmethyl-imidazo[1,2-b]pyridazin-6-yl derivatives” (Novartis AG, priority 2009, dated 2013).

T1 sequence (P08581 969-1390): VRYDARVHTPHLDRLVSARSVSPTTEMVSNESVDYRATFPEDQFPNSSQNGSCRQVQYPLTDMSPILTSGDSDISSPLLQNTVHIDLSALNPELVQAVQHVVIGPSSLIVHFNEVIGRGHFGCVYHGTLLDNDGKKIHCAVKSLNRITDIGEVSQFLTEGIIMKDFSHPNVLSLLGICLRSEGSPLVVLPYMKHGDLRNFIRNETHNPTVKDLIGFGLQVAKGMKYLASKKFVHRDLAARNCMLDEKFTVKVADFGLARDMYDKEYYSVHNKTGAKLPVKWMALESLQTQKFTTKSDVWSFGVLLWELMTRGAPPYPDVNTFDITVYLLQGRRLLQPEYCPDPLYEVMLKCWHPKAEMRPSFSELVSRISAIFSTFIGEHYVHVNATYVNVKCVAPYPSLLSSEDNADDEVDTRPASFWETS

This assay has as its target T1, c-Met receptor tyrosine kinase, GST-c-Met(969-1390) (Homo sapiens, UniProt P08581).
T1 construct: made in house
The assay can be described thus: EPK c-Met profiling assay (LanthaScreen TR-FRET kinase assay). The format is biochemical. The note with it: 2 μM ATP, 0.3 nM enzyme, 60 minutes at room temperature. The essentials:
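Recombinant GST-c-Met(969-1390) cytoplasmic domain, 0.3 nM, phosphorylating 50 nM Fluorescein-PolyEAY with 2 μM ATP, 10 mM MgCl2, 3 mM MnCl2, 60 min at room temperature. EDTA-stopped; phosphoproduct detected by TR-FRET with Tb-PY20 antibody, end-point read. Final compound 0.003-10 μM over 8 concentrations.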
(TR-FRET usually uses a lanthanide donor and a delayed reading to cut background.)
As to `C[C@@H](c1cc2cnn(C)c2cc1F)c1cnc2ccc(N3CCNC(=O)C3)nn12` [Example 28, 4-{3-[(S)-1-(6-Fluoro-1-methyl-1H-indazol-5-yl)-ethyl]-imidazo[1,2-b]pyridazin-6-yl}-piperazin-2-one], the IC50 – broadly, the concentration that gives 50% inhibition – was determined as 17 nM.
Under `C[C@@H](c1c(F)cc2ncccc2c1F)c1cnc2ccc(N3CCNCC3)nn12` [Example 7, 5,7-Difluoro-6-[(S)-1-(6-piperazin-1-yl-imidazo[1,2-b]pyridazin-3-yl)-ethyl]-quinoline] stands 4.1 nM.
For `C[C@@H](c1c(F)cc2ncccc2c1F)c1cnc2ccc(N3CCNC(=O)C3)nn12` (single isomer, unassigned) [Example 5] the value was less than 3 nM; for `C[C@@H](c1c(F)cc2ncccc2c1F)c1cnc2ccc(N3CCN(C)C(=O)C3)nn12` [Example 2, 4-{3-[(S)-1-(5,7-Difluoro-quinolin-6-yl)-ethyl]-imidazo[1,2-b]pyridazin-6-yl}-1-methyl-piperazin-2-one], less than 3 nM; for `CC(=O)N1CCN(c2ccc3ncc([C@@H](C)c4c(F)cc5ncccc5c4F)n3n2)CC1` [Example 11, 1-(4-{3-[(S)-1-(5,7-Difluoro-quinolin-6-yl)-ethyl]-imidazo[1,2-b]pyridazin-6-yl}-piperazin-1-yl)ethanone], 3.6 nM.
